These results are taken from paper PMC6270821, “ROS-Mediated Cytotoxic Effect of Copper(II) Hydrazone Complexes against Human Glioma Cells” (Molecules, 2014).

Bounds are passed on as bounds.

In test [1] the test system is U87 (p53 wild-type glioblastoma multiforme) cells. As to the kind of experiment: MTT cytotoxicity assay, U87 cells. Type of test: cell-based, human. To be noted: for IC50: MTT, 48 h treatment. As for the experimental part: (§1) The in vitro cytotoxic effects of H2AcMe, H2BzMe and complexes 1 and 2 against wild type p53 U87 and mutant p53 T98 glioblastoma cells and against MRC-5 fibroblasts cells were tested using cisplatin as a positive control. To determine the IC50 (concentration that inhibits 50% of cell survival) values the cytotoxic effects were quantified using the 3-(4,5-dimethyl-2-thioazolyl)-2,5-diphenyl tetrazolium bromide (MTT) colorimetric assay. All tested compounds were cytotoxic against both glioma cell lines in a dose-dependent way. The IC50 values (see Table 1) were found in the micromolar range. Despite their cytotoxic activity, all compounds were less toxic to fibroblasts cells than cisplatin. CuCl2 evoked only mild cytotoxicity in all cell lineages with IC50 higher than 100 µM.
(§2) U87 (p53 wild-type glioblastoma multiforme) and T98 (p53 mutant glioblastoma multiforme) malignant human tumor cells and MRC5 (Human Fetal Lung Fibroblast) cells were obtained from the American Type Culture Collection (ATCC, Manassas, VA, USA). Cell lines were grown as monolayer in Dulbecco’s Modified Eagle’s Medium (DMEM, Gibco, Rockville, MD, USA), supplemented with 10% fetal bovine serum (Cultilab, Campinas, São Paulo, Brazil) and antibiotics (50 U/mL penicillin/50 […] streptomycin), in a humidified atmosphere air/CO2 (95%/5%) at 37 °C. Cells 80% confluents were used in all experiments. For all experiments, cells were seeded in 96-well plates, at a density of 1000 cells/well. After 24 h incubation cells were treated.
(§3) To determine the IC50 values the cytotoxic effects were quantified using the 3-(4,5-dimethyl-2-thioazolyl)-2,5-diphenyltetrazolium bromide (MTT) colorimetric assay. Briefly, cells were treated with increasing concentrations (10^−12, 10^−11, 10^−10, 10^−9, 10^−8, 10^−7, 10^−6, 10^−5, 10^−4 mol·L^−1) of either cisplatin (positive control) or test compounds (H2AcMe, H2BzMe, 1 and 2). The compounds were previously dissolved in dimethyl sulfoxide (DMSO) and the final concentrations were adjusted in DMEM in such manner that the final DMSO concentration was lower than 0.5%. Following 48 h treatment, MTT reagent was added to each well. Following another 4 h of incubation at 37 °C, DMSO was added to each well to dissolve formazan precipitate and absorbance was measured at 570 nm. Tests using DMSO (0.5% in DMEM) as negative control were carried out in parallel. All tests were performed in quadruplicates with full agreement between the results. Statistical analysis was carried out by the unpaired, one-tailed Student’s t testing using a p value of 0.05. A value of p < 0.05 was considered significant.

For test [2], the system named is MRC5 (Human Fetal Lung Fibroblast) cells. As to the kind of experiment: MTT cytotoxicity assay, MRC5 fibroblasts. Type of test: cell-based. As for the experimental part: as §1, §2, §3
The next test deals with pUC 19 plasmid DNA. As to the kind of experiment: Agarose gel electrophoresis of supercoiled plasmid DNA. To be noted: 100 µM, Tris-HCl pH 7.20, 37 °C, 24 h. Details: species or system Escherichia coli. The method, then: Studies of interactions between the compounds under study and supercoiled plasmid DNA by agarose gel electrophoresis were carried out. Thus, 136 ng of purified plasmid DNA-pUC 19 from Escherichia coli (Sigma-Aldrich Brasil, São Paulo, Brazil) were incubated with compounds 1, 2 and cisplatin at 100 µM in Tris-HCl buffer (NaCl 50 mM, Tris-HCl 5 mM, pH = 7.20). The mixture was incubated at 37 °C for 24 h. Thereafter, the reactions were quenched by adding 5 µL of the loading buffer solution (50 mM Tris, pH 7.20, 0.01% bromophenol blue, 50% glycerol, and 250 mM EDTA). The samples were analyzed by 1% agarose gel electrophoresis in 0.5 × TBE buffer for 1 h 40 min at […]. The gel was stained after electrophoresis in 0.5× TBE buffer with 2.5 µg·mL^−1 ethidium bromide for 15 min and visualized by UV light.

Test [3] concerns T98 (p53 mutant glioblastoma multiforme) cells. As to the kind of experiment: MTT cytotoxicity assay, T98 cells. Type of test: cell-based, human. To be noted: for IC50: MTT, 48 h treatment; for selectivity index (SI = IC50MRC5/IC50tumor cell), T98: T98 vs MRC5. The method, then: as §1, §2, §3
The next test relates to MRC5 cells. As to the kind of experiment: ROS generation, DCFH-DA assay, MRC5 cells. Type of test: cell-based, human. To be noted: 1 × 10^−5 mol/L, 24 h. From the text:
(§4) To examine the effects of H2AcMe, H2BzMe and their complexes 1 and 2 on the generation of free radicals (reactive oxygen species, ROS), we used the 2',7'-dichlorodihydrofluorescein diacetate (DCFH-DA) assay.
(§5) ROS accumulation was detected using dichlorodihydrofluorescein diacetate (DCFH-DA, Sigma). DCFH-DA is a non-fluorescent compound, that when it is taken up by passive diffusion into the cells, is hydrolyzed by esterases to yield non-permeable DCFH. In the presence of ROS, DCFH is oxidized to the fluorescent DCF. Tumor cells were treated with the compounds for 24 h and were then incubated with DCFH-DA (1 × 10^−5 mol·L^−1) for 30 min at 37 °C. Following incubation, the cells were washed twice with PBS. Thereafter, the cells were observed under the fluorescent microscope Zeiss Axionplan coupled with a digital camera at excitation and emission wavelengths of 488 and 525 nm, respectively. Data were analyzed using ImageJ (ImageJ, National Institute of Health, Bethesda, MD, USA) and expressed as percentages of DCFDA fluorescence of the corresponding control.

The subject of the next test is U87 cells. As to the kind of experiment: ROS generation, DCFH-DA assay, U87 cells. To be noted: 1 × 10^−5 mol/L, 24 h. Type of test: cell-based, human.
Text: as §4, §5

Where [4] appears, read: Homo sapiens, MRC5, 48 h treatment.

For the molecule `N.N.[Cl][Pt][Cl]` [Cisplatin, [cis(Diaminedichloro)platinum(II)], reference compound], the values for the IC50 in test [1], in test [2] (48 h treatment) and in test [3] were 1.76 ± 0.22 µM, 5.05 ± 0.71 µM and 5.31 ± 1.94 µM, respectively. Besides, the “selectivity index (SI = IC50MRC5/IC50tumor cell), U87” value in test [1] (U87 vs MRC5) is recorded as 2.87. Further, the “alteration in the electrophoretic mobility of pUC 19 plasmid DNA” value with pUC 19 plasmid DNA was “strong modification”. Further, the “selectivity index (SI = IC50MRC5/IC50tumor cell), T98” value in test [3] is on record as 0.95.

As to `[Cl][Cu][Cl]` [CuCl2, reference compound], the half-inhibitory concentration (IC50) in test [1], in test [2] (48 h treatment) and in test [3] was above 100 µM each time. The “alteration in the electrophoretic mobility of pUC 19 plasmid DNA” value in the test with pUC 19 plasmid DNA is reported as “no alteration in the electrophoretic mobility”.

For the molecule `CC(=O)NN=C(C)c1ccccn1` [H2AcMe, 2-Acetylpyridine acetylhydrazone], the “ROS levels in MRC5 cells compared with glioma cells” value in the test on MRC5 cells is given as “lower levels of ROS in MRC5 cells”. The IC50 came out at 67.6 ± 4.08 µM in test [1] (Homo sapiens, U-87 MG); 19.8 ± 4.15 µM in test [2] (setting [4]); 13.8 ± 4.89 µM in test [3] (Homo sapiens, T98, 48 h). Moreover, in the test on U87 cells, the “ROS levels in U87 cells compared with T98 cells” value is “higher levels of ROS in U87 cells”.

Take `CC(=O)NN=C(c1ccccc1)c1ccccn1` [H2BzMe, 2-benzoylpyridine acetylhydrazone]: in the test with MRC5 cells, the “ROS levels in MRC5 cells compared with glioma cells” value was “the same increasing in ROS levels in MRC5 and in both malignant cells”. For the same molecule, the concentration for half-maximal inhibition (IC50) in test [1] (Homo sapiens, U-87 MG) was 52.3 ± 10 µM; in test [2] (setting [4]), 62.3 ± 7.76 µM; in test [3] (Homo sapiens, T98, 48 h) it was 19.8 µM; in test [3], 19.7 ± 1.06 µM. Also, in the test with U87 cells, the “ROS levels in U87 cells compared with T98 cells” value is recorded as “equally effective in both cell lineages”. The “selectivity index (SI = IC50MRC5/IC50tumor cell), T98” value in test [3] is recorded as “good selectivity index”.
